Activity calls are given as the source filed them. The calls are words filed in the database; no cut-off is given here.
Assays:
[1] = target: Mu-type opioid receptor (Homo sapiens, UniProt P35372); test: Agonist activity at mu opioid receptor (unknown origin) expressed in HEK293-A cells assessed as inhibition of forskolin-stimulated cAMP accumulation incubated for 30 mins by competition PKA binding assay; format: functional, cell-based
[2] = target: Kappa-type opioid receptor (Homo sapiens, UniProt P41145); test: Agonist activity at kappa opioid receptor (unknown origin) expressed in HEK293-A cells assessed as inhibition of forskolin-stimulated cAMP accumulation incubated for 30 mins by competition PKA binding assay; format: functional, cell-based; details: read-out: EC50
[3] = target: T1, Delta-type opioid receptor (Homo sapiens, UniProt P41143); test: Agonist activity at delta opioid receptor (unknown origin) expressed in HEK293-A cells assessed as inhibition of forskolin-stimulated cAMP accumulation incubated for 30 mins by competition PKA binding assay; format: functional, cell-based
[4] = target: T1, Delta-type opioid receptor; test: Agonist activity at delta opioid receptor (unknown origin) expressed in HEK293-A cells assessed as inhibition of forskolin-stimulated cAMP accumulation incubated for 30 mins by competition PKA binding assay relative to control; format: functional, cell-based; details: filed as agonist
[5] = target: T2, Neuropeptide FF receptor 1 (Homo sapiens, UniProt Q9GZQ6); test: Agonist activity at NPFFR1 (unknown origin) expressed in HEK293-A cells assessed as inhibition of forskolin-stimulated cAMP accumulation incubated for 30 mins by competition PKA binding assay; format: functional, cell-based
[6] = target: T2, Neuropeptide FF receptor 1; test: Agonist activity at NPFFR1 (unknown origin) expressed in HEK293-A cells assessed as inhibition of forskolin-stimulated cAMP accumulation incubated for 30 mins by competition PKA binding assay relative to control; format: functional, cell-based; details: filed as agonist
[7] = target: T3, Neuropeptide FF receptor 2 (Homo sapiens, UniProt Q9Y5X5); test: Agonist activity at NPFFR2 (unknown origin) expressed in HEK293-A cells assessed as inhibition of forskolin-stimulated cAMP accumulation incubated for 30 mins by competition PKA binding assay; format: functional, cell-based
[8] = target: T3, Neuropeptide FF receptor 2; test: Agonist activity at NPFFR2 (unknown origin) expressed in HEK293-A cells assessed as inhibition of forskolin-stimulated cAMP accumulation incubated for 30 mins by competition PKA binding assay relative to control; format: functional, cell-based; details: filed as agonist
[9] = Half life in 15% mouse brain at 0.01 mM by RP-HPLC analysis; format: ADME, tissue-based
[10] = Half life in 100% mouse plasma at 0.01 mM by RP-HPLC analysis; format: ADME, cell-free
[11] = Drug level in Kunming mouse plasma at 1 mg/kg, iv after 5 to 240 mins by LC-MS/MS analysis; format: ADME, organism-based; details: time 5-240 min
[12] = Drug level in Kunming mouse brain at 1 mg/kg, iv after 5 to 240 mins by LC-MS/MS analysis; format: ADME, organism-based; details: in vivo, time 5-240 min
[13] = Ratio of drug level in brain to plasma in Kunming mouse brain at 1 mg/kg, iv after 5 to 240 mins by LC-MS/MS analysis; format: ADME, organism-based; details: time 5-240 min, read-out: BPR
[14] = tested on: Mus musculus; test: Analgesic activity in icv dosed Kunming mouse by radiant heat tail flick test; format: functional
[15] = tested on: Mus musculus; test: Analgesic activity in icv dosed Kunming mouse assessed as time duration during which supraspinal antinociception lasted by radiant heat tail flick test; format: functional
[16] = tested on: Mus musculus; test: Analgesic activity in Kunming mouse at 30 pmol, icv by radiant heat tail flick test; format: functional
[17] = tested on: Mus musculus; test: Analgesic activity in Kunming mouse at 30 pmol, icv pre-treated with 10 nmol, icv opioid receptor antagonist beta-funaltrexamine by radiant heat tail flick test; format: functional, organism-based
[18] = tested on: Mus musculus; test: Analgesic activity in Kunming mouse assessed as increase in antinociceptive effect at 0.03 pmol, icv pre-treated with 10 nmol, icv NPFF receptor antagonist RF9 by radiant heat tail flick test; format: functional, organism-based
[19] = tested on: Mus musculus; test: Analgesic activity in sc dosed Kunming mouse by radiant heat tail flick test; format: functional
[20] = tested on: Mus musculus; test: Analgesic activity in sc dosed Kunming mouse assessed as time duration during which antinociception lasted by radiant heat tail flick test; format: functional
[21] = tested on: Mus musculus; test: Analgesic activity in Kunming mouse at 0.09 umol/kg, sc by radiant heat tail flick test; format: functional; details: dose 0.09 µmol/kg
[22] = tested on: Mus musculus; test: Analgesic activity in icv dosed Kunming mouse dosed once daily for 8 consecutive days by radiant heat tail flick test; format: functional, organism-based; details: time 8.0 day
[23] = tested on: Mus musculus; test: Analgesic activity in sc dosed Kunming mouse dosed once daily for 8 consecutive days by radiant heat tail flick test; format: functional, organism-based; details: time 8.0 day
[24] = Toxicity in Kunming mouse assessed as effect on motor coordination at 30 pmol, icv by rotarod test; details: in vivo, icv_or_intrathecal
[25] = Toxicity in Kunming mouse assessed as effect on motor coordination at 0.09 umol/kg, sc by rotarod test; format: organism-based; details: in vivo, dose 0.09 µmol/kg
[26] = Toxicity in Kunming mouse assessed as increase in total travelled distance at 0.09 umol/kg, sc by open field assay; format: organism-based; details: in vivo, dose 0.09 µmol/kg
[27] = Toxicity in Kunming mouse assessed as activation of reward circuits at 0.09 umol/kg, sc by CPP test; format: organism-based; details: in vivo, dose 0.09 µmol/kg
[28] = Toxicity in Kunming mouse assessed as increase in jumping counts after naloxone-injection at 0.09 umol/kg, sc by naloxone-precipitated withdrawal test; format: organism-based; details: in vivo, dose 0.09 µmol/kg
[29] = Induction of constipation in sc dosed Kunming mouse assessed as inhibition of gastrointestinal motility by charcoal based gastrointestinal motility test; format: organism-based; details: in vivo
[30] = Safety index, ratio of ED50 for induction of constipation in sc dosed Kunming mouse to ED50 for analgesic activity in sc dosed Kunming mouse; format: organism-based; details: in vivo, read-out: Ratio ED50

SMILES: N=C(N)NCCC[C@H](NC(=O)[C@H](CCC(N)=O)NC(=O)[C@@H]1CCCN1C(=O)[C@@H]1CSSC[C@@H](NC(=O)[C@@H](N)Cc2ccc(O)cc2)C(=O)NCC(=O)N[C@@H](Cc2ccccc2)C(=O)N1)C(=O)N[C@@H](Cc1ccccc1)C(N)=O
- EC50 [1]: 43.1 nM
- EC50 [2]: 866 nM
- EC50 [3]: 174 nM
- Emax [4]: 65.1%
- EC50 [5]: 7.5 nM
- Emax [6]: 75.9%
- EC50 [7]: 19.2 nM
- Emax [8]: 53.3%
- half-life at 10 µM [9]: 2.88 h
- half-life at 10 µM [10]: 0.893 h
- AUC [11]: 63 ng·h/mL
- Drug uptake [12]: 3.87 µg·min/g
- Kp [13]: 1.02
- ED50 [14]: 0.014 pmol
- Activity [15]: Dose-dependent effect
- Time [15]: 3 h
- MPE [16]: 90%
- Activity [17]: inactive
- Activity [18]: Active
- Activity [19]: Dose-dependent effect
- ED50 [19]: 0.003 µmol/kg
- Time [20]: 4 h
- Activity [21]: 80%
- Activity [22]: Active
- Activity [23]: Active
- Activity [24]: Non-Toxic
- Activity [25]: Non-Toxic
- Activity [26]: Non-Toxic
- Activity [27]: Non-Toxic
- Activity [28]: Non-Toxic
- Activity [29]: Dose-dependent effect
- ED50 [29]: 2.25 µmol/kg
- selectivity ratio [30]: 750
